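Assay format: 96-well plates, 48-hour exposure. Abbreviation: GI50, concentration required for 50% inhibition of growth.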 The source made the active and inactive calls. Cut-off read from the data, not from the text of the source: active = GI50 up to about 1.1 µM and inactive = higher.
Legend:
Assay in all cases: NCI anticancer screen, dose series, 48 h
[1] = tested on: M19-MEL
[2] = tested on: XF498
[3] = tested on: EKVX
[4] = tested on: KM12
[5] = tested on: CAKI-1
[6] = tested on: SF-295
[7] = tested on: UO-31
[8] = tested on: OVCAR-8
[9] = tested on: HT-29
[10] = tested on: NCI-H23
[11] = tested on: SK-MEL-2
[12] = tested on: COLO 205
[13] = tested on: SK-MEL-28
[14] = tested on: A498
[15] = tested on: 786-0
[16] = tested on: HL-60
[17] = tested on: SNB-75
[18] = tested on: SK-OV-3
[19] = tested on: SNB-19
[20] = tested on: CCRF-CEM
[21] = tested on: HOP-92
[22] = tested on: DMS-114
[23] = tested on: M14
[24] = tested on: NCI-H226
[25] = tested on: Malme-3M
[26] = tested on: SW-620
[27] = tested on: U-251
[28] = tested on: HOP-62
[29] = tested on: TK-10
[30] = tested on: RPMI-8226
[31] = tested on: SF-539
[32] = tested on: MOLT-4
[33] = tested on: LXFL 529
[34] = tested on: OVCAR-4
[35] = tested on: OVCAR-5
[36] = tested on: SF-268
[37] = tested on: K562
[38] = tested on: A549
[39] = tested on: HCT-15
[40] = tested on: NCI-H522
[41] = tested on: HOP-18
[42] = tested on: ACHN
[43] = tested on: NCI-H460
[44] = tested on: DLD-1
[45] = tested on: UACC-257
[46] = tested on: SK-MEL-5
[47] = tested on: KM-20L2
[48] = tested on: OVCAR-3
[49] = tested on: DMS-273
[50] = tested on: HCC 2998
[51] = tested on: SNB-78
[52] = tested on: HCT-116
[53] = tested on: UACC-62
[54] = tested on: SN12C
[55] = tested on: IGROV-1
[56] = tested on: LOX IMVI
[57] = tested on: SR
[58] = tested on: RXF 393
[59] = tested on: RXF 631
[60] = tested on: MCF7
[61] = tested on: MDA-MB-435

What does the source list for `COc1ccc2c3c([nH]c2c1[N+](=O)[O-])C(C)N(C)CC3` (stereo not given)?
GI50 [1]: > 100 µM (inactive); GI50 [2]: > 100 µM (inactive); GI50 [3]: > 100 µM (inactive); GI50 [4]: 51.6 µM (inactive); GI50 [5]: 36.6 µM (inactive); GI50 [6]: 62.8 µM (inactive); GI50 [7]: 76.2 µM (inactive); GI50 [8]: > 100 µM (inactive); GI50 [9]: 18.9 µM (inactive); GI50 [10]: > 100 µM (inactive); GI50 [11]: > 100 µM (inactive); GI50 [12]: 50.4 µM (inactive); GI50 [13]: > 100 µM (inactive); GI50 [14]: > 100 µM (inactive); GI50 [15]: > 100 µM (inactive); GI50 [16]: 39.6 µM (inactive); GI50 [17]: 72.3 µM (inactive); GI50 [18]: > 100 µM (inactive); GI50 [19]: > 100 µM (inactive); GI50 [20]: 32.4 µM (inactive); GI50 [21]: 34 µM (inactive); GI50 [22]: > 100 µM (inactive); GI50 [23]: > 100 µM (inactive); GI50 [24]: > 100 µM (inactive); GI50 [25]: > 100 µM (inactive); GI50 [26]: 29.6 µM (inactive); GI50 [27]: > 100 µM (inactive); GI50 [28]: > 100 µM (inactive); GI50 [29]: > 100 µM (inactive); GI50 [30]: 77.4 µM (inactive); GI50 [31]: > 100 µM (inactive); GI50 [32]: 51.6 µM (inactive); GI50 [33]: 69 µM (inactive); GI50 [34]: 38 µM (inactive); GI50 [35]: > 100 µM (inactive); GI50 [36]: > 10 µM (inactive); GI50 [37]: 18.1 µM (inactive); GI50 [38]: > 100 µM (inactive); GI50 [39]: 80.4 µM; GI50 [40]: > 100 µM (inactive); GI50 [41]: 19.4 µM (inactive); GI50 [42]: > 100 µM (inactive); GI50 [43]: > 100 µM (inactive); GI50 [44]: > 100 µM (inactive); GI50 [45]: > 100 µM (inactive); GI50 [46]: 49.5 µM (inactive); GI50 [47]: 62.4 µM (inactive); GI50 [48]: > 100 µM (inactive); GI50 [49]: > 100 µM (inactive); GI50 [50]: > 100 µM (inactive); GI50 [51]: > 100 µM (inactive); GI50 [52]: > 100 µM (inactive); GI50 [53]: > 100 µM (inactive); GI50 [54]: > 100 µM (inactive); GI50 [55]: > 100 µM (inactive)

For `COC(=O)C1=C(C)N(NC(=O)OC(C)(C)C)C(=O)C1=P(c1ccccc1)(c1ccccc1)c1ccccc1`, which GI50 [1] is on record?
Its GI50 is > 100 µM (inactive).

What about the GI50 [2] of the same molecule?
The GI50 was > 100 µM (inactive).

What about the GI50 [3] of the same molecule?
Its GI50 is > 100 µM (inactive).

What about the GI50 [4] of the same molecule?
Its GI50 is 64 µM (inactive).

What about the GI50 [5] of the same molecule?
The GI50 was > 100 µM (inactive).

And the GI50 [6]?
The GI50 was 67.9 µM (inactive).

And the GI50 [7]?
The GI50 was > 100 µM (inactive).

What about the GI50 [8] of the same molecule?
The GI50 was > 100 µM (inactive).

What about the GI50 [9] of the same molecule?
The GI50 was > 100 µM (inactive).

What about the GI50 [10] of the same molecule?
The GI50 was > 100 µM (inactive).

And the GI50 [11]?
Its GI50 is 17.2 µM (inactive).

And the GI50 [12]?
Its GI50 is > 100 µM (inactive).

And the GI50 [14]?
Its GI50 is > 100 µM (inactive).

And the GI50 [15]?
Its GI50 is > 100 µM (inactive).

What about the GI50 [16] of the same molecule?
The GI50 was 42.4 µM (inactive).

What about the GI50 [17] of the same molecule?
The GI50 was > 100 µM (inactive).

And the GI50 [18]?
Its GI50 is > 100 µM (inactive).

And the GI50 [19]?
Its GI50 is > 100 µM (inactive).

What about the GI50 [20] of the same molecule?
The GI50 was > 100 µM (inactive).

And the GI50 [21]?
The GI50 was > 100 µM (inactive).

What about the GI50 [22] of the same molecule?
The GI50 was > 100 µM (inactive).

What about the GI50 [56] of the same molecule?
The GI50 was > 100 µM (inactive).

What about the GI50 [57] of the same molecule?
The GI50 was 69 µM (inactive).

And the GI50 [58]?
Its GI50 is > 100 µM (inactive).

And the GI50 [23]?
Its GI50 is > 100 µM (inactive).

What about the GI50 [24] of the same molecule?
Its GI50 is > 100 µM (inactive).

And the GI50 [25]?
Its GI50 is > 100 µM (inactive).

And the GI50 [26]?
The GI50 was > 100 µM (inactive).

What about the GI50 [27] of the same molecule?
The GI50 was > 100 µM (inactive).

What about the GI50 [28] of the same molecule?
Its GI50 is > 100 µM (inactive).

What about the GI50 [29] of the same molecule?
Its GI50 is > 100 µM (inactive).

What about the GI50 [30] of the same molecule?
Its GI50 is > 100 µM (inactive).

And the GI50 [31]?
Its GI50 is > 100 µM (inactive).

And the GI50 [32]?
The GI50 was 41.4 µM (inactive).

And the GI50 [33]?
The GI50 was > 100 µM (inactive).

And the GI50 [34]?
The GI50 was > 100 µM (inactive).

And the GI50 [35]?
The GI50 was > 100 µM (inactive).

And the GI50 [36]?
Its GI50 is > 100 µM (inactive).

What about the GI50 [37] of the same molecule?
Its GI50 is 73.5 µM (inactive).

And the GI50 [38]?
Its GI50 is > 100 µM (inactive).

What about the GI50 [39] of the same molecule?
The GI50 was over 100 µM.

What about the GI50 [40] of the same molecule?
Its GI50 is 75.5 µM (inactive).

What about the GI50 [41] of the same molecule?
Its GI50 is > 100 µM (inactive).

What about the GI50 [42] of the same molecule?
Its GI50 is > 100 µM (inactive).

And the GI50 [43]?
The GI50 was > 100 µM (inactive).

What about the GI50 [44] of the same molecule?
Its GI50 is > 100 µM (inactive).

And the GI50 [45]?
The GI50 was > 100 µM (inactive).

And the GI50 [46]?
The GI50 was > 100 µM (inactive).

And the GI50 [47]?
Its GI50 is > 100 µM (inactive).

And the GI50 [48]?
Its GI50 is 66.8 µM (inactive).

And the GI50 [49]?
The GI50 was 35.2 µM (inactive).

What about the GI50 [50] of the same molecule?
The GI50 was > 100 µM (inactive).

What about the GI50 [51] of the same molecule?
Its GI50 is > 100 µM (inactive).

What about the GI50 [52] of the same molecule?
The GI50 was > 100 µM (inactive).

What about the GI50 [53] of the same molecule?
Its GI50 is > 100 µM (inactive).

What about the GI50 [54] of the same molecule?
The GI50 was > 100 µM (inactive).

And the GI50 [55]?
Its GI50 is > 100 µM (inactive).

`CC[C@H]1CN2CCc3cc(OC)c(OC)cc3[C@@H]2C[C@@H]1C[C@H]1NCCc2cc(OC)c(OC)cc21` was tested. Which GI50 [16] did it give?
The GI50 was 0.0148 µM (active).

What about the GI50 [59] of the same molecule?
The GI50 was 0.0311 µM (active).

What about the GI50 [32] of the same molecule?
Its GI50 is 0.0161 µM (active).

What about the GI50 [33] of the same molecule?
Its GI50 is 0.0276 µM (active).

What about the GI50 [37] of the same molecule?
Its GI50 is 0.0104 µM (active).

And the GI50 [40]?
Its GI50 is 0.0109 µM (active).

And the GI50 [41]?
Its GI50 is 0.0578 µM (active).

What about the GI50 [44] of the same molecule?
Its GI50 is 0.0358 µM (active).

And the GI50 [47]?
The GI50 was 0.0652 µM (active).

And the GI50 [60]?
The GI50 was 0.00347 µM (active).

And the GI50 [49]?
The GI50 was 0.043 µM (active).

What about the GI50 [52] of the same molecule?
The GI50 was 0.0149 µM (active).

What about the GI50 [61] of the same molecule?
The GI50 was 0.0188 µM (active).

Reference: ChEMBL document CHEMBL1201862, “PubChem BioAssay data set” (2004)
